Measured values: patent US10273223B2, “Substituted 6,5-fused bicyclic heteroaryl compounds” (Epizyme, Inc., priority 2011, dated 2019)

Target: EZH2 (PRC2 enzyme complex: EZH2, EED, Suz12, RbAp48) (Homo sapiens (Human), UniProt Q15910)
Assay: PRC2 enzyme assay on peptide substrates (3H-SAM Flashplate)
Details: read-out: EZH2 IC50; PRC2 enzyme assays on peptide substrates; 4 nM enzyme, 30 min preincubation at 25° C.; EZH2 form (wild-type or Y641 mutant) not stated in tables

EZH2 (PRC2 enzyme complex: EZH2, EED, Suz12, RbAp48) (Homo sapiens (Human), UniProt Q15910), sequence (Q15910 other isoform, or with tags, fused parts or gaps): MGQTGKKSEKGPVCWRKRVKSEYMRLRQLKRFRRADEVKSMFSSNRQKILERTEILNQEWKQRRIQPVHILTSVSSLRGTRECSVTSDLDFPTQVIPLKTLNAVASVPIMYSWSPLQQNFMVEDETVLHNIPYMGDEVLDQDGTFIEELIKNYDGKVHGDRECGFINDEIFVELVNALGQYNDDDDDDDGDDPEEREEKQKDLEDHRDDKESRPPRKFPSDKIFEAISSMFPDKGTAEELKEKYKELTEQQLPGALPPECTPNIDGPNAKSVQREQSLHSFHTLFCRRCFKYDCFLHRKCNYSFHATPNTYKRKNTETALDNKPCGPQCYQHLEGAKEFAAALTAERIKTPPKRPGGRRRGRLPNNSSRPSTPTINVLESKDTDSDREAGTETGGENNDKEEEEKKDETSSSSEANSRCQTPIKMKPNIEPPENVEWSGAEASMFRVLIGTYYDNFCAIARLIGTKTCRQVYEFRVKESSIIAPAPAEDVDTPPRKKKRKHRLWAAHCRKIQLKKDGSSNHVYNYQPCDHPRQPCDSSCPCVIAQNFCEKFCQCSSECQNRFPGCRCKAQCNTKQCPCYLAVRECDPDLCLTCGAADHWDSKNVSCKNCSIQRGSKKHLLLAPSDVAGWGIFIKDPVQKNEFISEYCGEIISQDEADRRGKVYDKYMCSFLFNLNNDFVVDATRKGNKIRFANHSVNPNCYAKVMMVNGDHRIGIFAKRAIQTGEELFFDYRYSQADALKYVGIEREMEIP
EZH2 (PRC2 enzyme complex: EZH2, EED, Suz12, RbAp48) (Homo sapiens (Human), UniProt Q15910), sequence (O75530 whole entry partner): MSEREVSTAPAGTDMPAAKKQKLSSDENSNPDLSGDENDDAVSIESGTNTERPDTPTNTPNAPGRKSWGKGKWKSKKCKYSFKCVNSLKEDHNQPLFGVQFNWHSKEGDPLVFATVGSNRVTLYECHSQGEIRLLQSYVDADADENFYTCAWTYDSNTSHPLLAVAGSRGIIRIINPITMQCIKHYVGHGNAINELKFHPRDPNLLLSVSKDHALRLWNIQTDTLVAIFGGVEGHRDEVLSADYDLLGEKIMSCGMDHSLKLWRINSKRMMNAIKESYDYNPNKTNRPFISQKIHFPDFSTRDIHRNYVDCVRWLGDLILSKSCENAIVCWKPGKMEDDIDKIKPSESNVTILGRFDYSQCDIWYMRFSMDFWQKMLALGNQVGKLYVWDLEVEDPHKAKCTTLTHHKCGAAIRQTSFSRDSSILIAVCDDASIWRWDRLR
EZH2 (PRC2 enzyme complex: EZH2, EED, Suz12, RbAp48) (Homo sapiens (Human), UniProt Q15910), sequence (Q15022 whole entry partner): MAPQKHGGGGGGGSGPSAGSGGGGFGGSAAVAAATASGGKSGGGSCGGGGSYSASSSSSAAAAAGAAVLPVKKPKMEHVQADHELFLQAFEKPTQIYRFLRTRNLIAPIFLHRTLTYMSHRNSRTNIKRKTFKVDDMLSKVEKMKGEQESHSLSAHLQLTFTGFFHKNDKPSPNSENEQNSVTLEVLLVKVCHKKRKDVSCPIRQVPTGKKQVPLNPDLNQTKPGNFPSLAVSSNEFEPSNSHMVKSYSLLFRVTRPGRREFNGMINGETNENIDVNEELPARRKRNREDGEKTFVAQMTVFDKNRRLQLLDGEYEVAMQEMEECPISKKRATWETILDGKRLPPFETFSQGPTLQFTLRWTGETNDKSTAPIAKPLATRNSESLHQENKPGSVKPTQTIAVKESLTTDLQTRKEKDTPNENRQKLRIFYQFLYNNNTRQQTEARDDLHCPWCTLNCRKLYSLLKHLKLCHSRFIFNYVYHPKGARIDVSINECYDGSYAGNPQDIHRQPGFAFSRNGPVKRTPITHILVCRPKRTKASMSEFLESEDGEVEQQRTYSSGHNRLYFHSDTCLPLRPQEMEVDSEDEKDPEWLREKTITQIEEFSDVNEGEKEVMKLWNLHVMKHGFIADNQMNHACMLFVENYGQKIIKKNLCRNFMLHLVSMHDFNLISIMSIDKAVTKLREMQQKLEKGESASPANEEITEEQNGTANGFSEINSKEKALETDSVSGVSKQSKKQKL
EZH2 (PRC2 enzyme complex: EZH2, EED, Suz12, RbAp48) (Homo sapiens (Human), UniProt Q15910), sequence (Q09028 whole entry partner): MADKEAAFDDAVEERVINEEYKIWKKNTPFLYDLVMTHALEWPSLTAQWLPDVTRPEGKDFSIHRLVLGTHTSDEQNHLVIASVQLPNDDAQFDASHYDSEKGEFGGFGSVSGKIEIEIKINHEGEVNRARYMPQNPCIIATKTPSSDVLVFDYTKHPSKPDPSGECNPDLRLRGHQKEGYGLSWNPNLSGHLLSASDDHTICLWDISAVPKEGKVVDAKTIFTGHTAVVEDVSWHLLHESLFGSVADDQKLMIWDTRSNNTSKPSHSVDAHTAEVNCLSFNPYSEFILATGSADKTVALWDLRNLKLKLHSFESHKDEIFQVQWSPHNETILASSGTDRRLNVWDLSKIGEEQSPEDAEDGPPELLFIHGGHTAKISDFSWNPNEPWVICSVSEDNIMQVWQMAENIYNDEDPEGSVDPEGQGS

Row | SMILES | IC50 [µM]
1 | Cc1cc(C)c(CNC(=O)c2cc(C3CC(C)(C)NC(C)(C)C3)nc3c2cnn3C2CCCC2)c(=O)[nH]1 [Compound B-4, 1-cyclopentyl-N-((4,6-dimethyl-2-oxo-1,2-dihydropyridin-3-yl)methyl)-6-(2,2,6,6-tetramethylpiperidin-4-yl)-1H-pyrazolo[3,4-b]pyridine-4-carboxamide] | < 0.3
2 | CC1=CC(C)=C(CNC(=O)c2cc(C3=CCN(C(=O)C4CN(C)C4)CC3)cc3c2cnn3C2CCCC2)C(C)N1 [Compound D-50] | < 0.3
3 | CNCCN1CCC(c2cc(C(=O)NCC3=C(C)C=C(C)NC3C)c3cnn(C4CCCC4)c3c2)CC1 [Compound D-51] | < 0.3

Target: EZH2 (PRC2 enzyme complex: EZH2, EED, Suz12, RbAp48) (Homo sapiens (Human), UniProt O75530+Q09028+Q15022+Q15910)
Assay: as above
Details: not given

EZH2 (PRC2 enzyme complex: EZH2, EED, Suz12, RbAp48) (Homo sapiens (Human), UniProt O75530+Q09028+Q15022+Q15910), sequence (Q15910 other isoform, or with tags, fused parts or gaps): as the sequence (Q15910 other isoform, or with tags, fused parts or gaps) above
EZH2 (PRC2 enzyme complex: EZH2, EED, Suz12, RbAp48) (Homo sapiens (Human), UniProt O75530+Q09028+Q15022+Q15910), sequence (O75530 whole entry partner): as the sequence (O75530 whole entry partner) above
EZH2 (PRC2 enzyme complex: EZH2, EED, Suz12, RbAp48) (Homo sapiens (Human), UniProt O75530+Q09028+Q15022+Q15910), sequence (Q15022 whole entry partner): as the sequence (Q15022 whole entry partner) above
EZH2 (PRC2 enzyme complex: EZH2, EED, Suz12, RbAp48) (Homo sapiens (Human), UniProt O75530+Q09028+Q15022+Q15910), sequence (Q09028 whole entry partner): as the sequence (Q09028 whole entry partner) above

Row | SMILES | IC50 [µM]
4 | Cc1cc(C)c(CNC(=O)c2cc(-c3cccc(CN(C)CCN4CCCC4)c3)nc3c2cnn3C(C)C)c(=O)[nH]1 [Compound A-41] | 0.3 to 1
5 | Cc1cc(C)c(CNC(=O)c2c(Cl)c(-c3ccc4c(c3)OCCO4)nc3c2cnn3C(C)C)c(=O)[nH]1 [Compound A-47] | 0.3 to 1
6 | CNCCN(C)Cc1cccc(-c2cc(C(=O)NCc3c(C)cc(C)[nH]c3=O)c3cnn(C(C)C)c3n2)c1 [Compound A-58] | 1 to 3
7 | Cc1cc(C)c(CNC(=O)c2cc(-c3ccccc3CN)nc3c2cnn3C(C)C)c(=O)[nH]1 [Compound A-68] | 3 to 10
8 | Cc1cc(C)n(C)c(=O)c1CNC(=O)c1cc(-c2cccc(CN(C)CCN(C)C)c2)nc2c1cnn2C(C)C [Compound A-74] | 10 to 50
9 | Cc1cc[nH]c(=O)c1CNC(=O)c1cc(-c2ccc3c(c2)OCCO3)nc2c1cnn2C(C)(C)C [Compound A-77] | 10 to 50
10 | Cc1cc(C)c(CNC(=O)c2cc(-c3cccc(CNCCCN(C)C)c3)nc3c2cnn3C(C)C)c(=O)[nH]1 [Compound A-125] | 1 to 3
11 | Cc1cc(C)c(CNC(=O)c2cc(C(C)C)nc3c2cnn3C(C)C)c(=O)[nH]1 [Compound B-109] | 1 to 3
12 | Cc1cc(C(C)C)c(CNC(=O)c2cc(C3=CC(C)(C)NC(C)(C)C3)nc3c2cnn3C(C)C)c(=O)[nH]1 [Compound B-148] | 10 to 50
